Structures can show the parent of a compound that is named as a salt. Where two headings read alike, the source gives them in different places.
Tests used:
Assay type in all cases: cell-based
mGlu4 = mGlu4 (Homo sapiens, UniProt Q14833); experiment: Activities on metabotropic glutamate receptor 4 (EC50; readout marked IP or by a symbol); details: for mGlu8/4 EC50 ratio: ratio of mGlu8 EC50 to mGlu4 EC50, one per pair of values (readout/batch)
Description: (§1) Activities on Metabotropic Glutamate Receptors 4, 8, 6 and 7.
(§2) Nitrobenzyl PCEP Derivatives

mGlu8 = mGlu8 (Homo sapiens, UniProt O00222); experiment: Activities on metabotropic glutamate receptor 8 (EC50; readout marked IP or by a symbol)
Description: as §1, §2

mGlu7 = mGlu7 (Homo sapiens, UniProt Q14831); experiment: Activities on metabotropic glutamate receptor 7 (EC50; readout marked IP or by a symbol); details: mean ± spread (n), read-out: mG1u7 EC50 μM (n) (converted)
Description: as §1, §2

mGlu6 = mGlu6 (Homo sapiens, UniProt O15303); experiment: Activities on metabotropic glutamate receptor 6 (EC50; readout marked IP or by a symbol); details: mean ± spread (n), read-out: mG1u6 EC50 μM (n) (converted)
Description: as §1, §2

[1] = values marked with an image symbol (second readout, not IP), mean ± spread (n)
[2] = values marked with an image symbol (second readout, not IP)
[3] = values marked IP, mean ± spread (n)

Chain of mGlu4 (Q14833 33-912): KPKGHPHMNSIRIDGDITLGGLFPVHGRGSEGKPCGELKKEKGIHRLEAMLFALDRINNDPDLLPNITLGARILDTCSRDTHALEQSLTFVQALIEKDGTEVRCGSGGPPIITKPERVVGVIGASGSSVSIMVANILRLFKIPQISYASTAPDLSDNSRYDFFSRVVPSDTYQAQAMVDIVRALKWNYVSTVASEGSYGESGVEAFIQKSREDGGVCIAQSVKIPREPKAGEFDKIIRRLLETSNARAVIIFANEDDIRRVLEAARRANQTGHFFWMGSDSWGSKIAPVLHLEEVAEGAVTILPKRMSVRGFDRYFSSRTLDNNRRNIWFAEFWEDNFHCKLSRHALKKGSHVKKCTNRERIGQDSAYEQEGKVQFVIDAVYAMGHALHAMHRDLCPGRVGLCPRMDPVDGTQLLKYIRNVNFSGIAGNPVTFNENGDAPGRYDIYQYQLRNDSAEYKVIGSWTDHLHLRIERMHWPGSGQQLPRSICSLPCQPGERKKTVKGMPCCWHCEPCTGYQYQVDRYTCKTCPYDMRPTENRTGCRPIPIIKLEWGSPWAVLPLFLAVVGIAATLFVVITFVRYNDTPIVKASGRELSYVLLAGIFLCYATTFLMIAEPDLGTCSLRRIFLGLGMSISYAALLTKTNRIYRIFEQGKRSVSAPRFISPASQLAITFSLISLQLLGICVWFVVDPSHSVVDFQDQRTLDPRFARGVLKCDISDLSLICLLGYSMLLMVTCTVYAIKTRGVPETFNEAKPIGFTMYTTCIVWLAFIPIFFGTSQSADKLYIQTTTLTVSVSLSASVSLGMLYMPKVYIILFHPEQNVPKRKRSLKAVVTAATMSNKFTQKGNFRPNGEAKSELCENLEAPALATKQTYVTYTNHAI
Chain of mGlu7 (Q14831 35-915): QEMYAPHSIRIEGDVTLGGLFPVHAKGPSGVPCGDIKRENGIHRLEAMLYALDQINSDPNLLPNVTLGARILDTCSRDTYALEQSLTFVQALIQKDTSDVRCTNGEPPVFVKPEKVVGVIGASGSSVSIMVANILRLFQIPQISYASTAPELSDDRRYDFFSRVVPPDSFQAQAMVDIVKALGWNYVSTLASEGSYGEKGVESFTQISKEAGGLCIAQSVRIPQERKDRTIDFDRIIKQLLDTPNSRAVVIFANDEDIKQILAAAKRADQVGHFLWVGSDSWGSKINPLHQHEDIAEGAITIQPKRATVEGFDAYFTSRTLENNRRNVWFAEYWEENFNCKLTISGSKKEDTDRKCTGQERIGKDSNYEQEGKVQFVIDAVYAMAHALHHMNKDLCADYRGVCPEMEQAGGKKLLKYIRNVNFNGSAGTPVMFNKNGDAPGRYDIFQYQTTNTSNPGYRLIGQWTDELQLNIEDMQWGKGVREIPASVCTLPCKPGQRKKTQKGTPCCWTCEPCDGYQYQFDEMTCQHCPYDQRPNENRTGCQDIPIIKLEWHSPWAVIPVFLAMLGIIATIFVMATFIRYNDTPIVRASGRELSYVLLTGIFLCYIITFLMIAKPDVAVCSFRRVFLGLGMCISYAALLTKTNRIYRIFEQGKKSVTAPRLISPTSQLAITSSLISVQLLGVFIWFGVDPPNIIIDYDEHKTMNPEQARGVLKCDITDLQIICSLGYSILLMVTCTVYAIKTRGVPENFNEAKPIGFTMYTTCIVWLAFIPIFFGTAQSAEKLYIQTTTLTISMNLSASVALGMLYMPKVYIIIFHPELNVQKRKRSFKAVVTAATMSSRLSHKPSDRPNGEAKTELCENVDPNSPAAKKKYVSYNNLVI
Chain of mGlu8 (O00222 34-908): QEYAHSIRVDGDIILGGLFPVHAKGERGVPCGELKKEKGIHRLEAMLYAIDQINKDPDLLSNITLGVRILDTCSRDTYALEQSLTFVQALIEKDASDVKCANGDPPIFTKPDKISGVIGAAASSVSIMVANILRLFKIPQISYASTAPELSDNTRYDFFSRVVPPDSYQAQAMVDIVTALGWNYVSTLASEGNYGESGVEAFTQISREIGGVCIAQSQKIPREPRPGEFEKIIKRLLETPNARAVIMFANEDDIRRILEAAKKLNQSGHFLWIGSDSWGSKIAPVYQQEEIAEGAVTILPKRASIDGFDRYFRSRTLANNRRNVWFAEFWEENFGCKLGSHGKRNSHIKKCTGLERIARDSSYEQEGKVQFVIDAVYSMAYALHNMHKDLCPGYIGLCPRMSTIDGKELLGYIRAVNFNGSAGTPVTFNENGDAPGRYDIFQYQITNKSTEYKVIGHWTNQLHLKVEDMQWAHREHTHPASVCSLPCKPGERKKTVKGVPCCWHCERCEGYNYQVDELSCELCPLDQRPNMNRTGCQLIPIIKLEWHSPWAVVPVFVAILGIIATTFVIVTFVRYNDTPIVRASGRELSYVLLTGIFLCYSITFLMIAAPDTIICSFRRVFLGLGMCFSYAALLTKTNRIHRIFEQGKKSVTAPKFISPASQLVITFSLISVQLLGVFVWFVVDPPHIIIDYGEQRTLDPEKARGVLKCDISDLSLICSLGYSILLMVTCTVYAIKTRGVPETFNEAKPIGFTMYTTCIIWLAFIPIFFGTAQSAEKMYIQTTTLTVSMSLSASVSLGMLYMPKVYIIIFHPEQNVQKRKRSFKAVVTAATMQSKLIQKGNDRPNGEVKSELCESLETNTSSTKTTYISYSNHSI
Chain of mGlu6 (O15303 25-877): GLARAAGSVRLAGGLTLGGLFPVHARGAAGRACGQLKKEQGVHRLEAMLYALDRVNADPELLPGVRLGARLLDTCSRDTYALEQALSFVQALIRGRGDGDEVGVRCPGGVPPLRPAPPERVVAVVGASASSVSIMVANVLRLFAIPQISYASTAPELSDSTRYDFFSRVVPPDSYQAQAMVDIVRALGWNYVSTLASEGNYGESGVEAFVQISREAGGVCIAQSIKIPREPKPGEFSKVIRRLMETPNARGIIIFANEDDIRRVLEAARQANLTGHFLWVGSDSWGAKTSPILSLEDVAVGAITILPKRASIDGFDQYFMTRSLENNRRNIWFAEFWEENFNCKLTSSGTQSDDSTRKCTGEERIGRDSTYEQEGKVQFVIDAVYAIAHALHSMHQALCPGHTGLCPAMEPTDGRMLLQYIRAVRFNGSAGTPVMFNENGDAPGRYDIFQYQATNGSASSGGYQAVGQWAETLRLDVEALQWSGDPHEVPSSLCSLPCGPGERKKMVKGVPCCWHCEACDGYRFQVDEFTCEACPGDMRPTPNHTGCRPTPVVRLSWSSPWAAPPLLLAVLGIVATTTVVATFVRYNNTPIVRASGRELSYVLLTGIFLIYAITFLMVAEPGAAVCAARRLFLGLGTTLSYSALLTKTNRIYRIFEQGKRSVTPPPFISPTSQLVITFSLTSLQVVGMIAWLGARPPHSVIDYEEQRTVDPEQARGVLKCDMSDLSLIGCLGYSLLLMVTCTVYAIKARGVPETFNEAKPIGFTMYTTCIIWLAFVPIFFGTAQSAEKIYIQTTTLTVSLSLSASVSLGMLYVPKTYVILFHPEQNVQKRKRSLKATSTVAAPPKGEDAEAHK

| EC50 (mGlu4; [1]) [µM] | EC50 (mGlu8; [1]) [µM] | mGlu8/4 EC50 ratio (mGlu4) | SMILES | further results |
| --- | --- | --- | --- | --- |
| 5.1 ± 1.2 | 33 ± 31 | – | CCOc1cc(C(O)P(=O)(O)CC[C@H](N)C(=O)O)cc([N+](=O)[O-])c1O (single isomer, unassigned) [LSP3-1143-I, hydrochloride] | mGlu8/4 EC50 ratio (mGlu4; hydrochloride): 6.5 |
| 1.7 ± 0.6 | 2.2 ± 0.6 | 1.3 | COc1ccc(C(O)P(=O)(O)CC[C@H](N)C(=O)O)cc1[N+](=O)[O-] (single isomer, unassigned) [LSP2-6146-II, hydrochloride] | – |
| 4.7 ± 0.4 | 27 ± 14 | 5.9 | COc1cc(C(O)P(=O)(O)CC[C@H](N)C(=O)O)cc([N+](=O)[O-])c1O (single isomer, unassigned) [LSP3-1101-II, hydrochloride] | EC50 (mGlu7; [2]): 100 ± 49 µM; EC50 (mGlu6; [2]): 2.36 ± 0.77 µM |
| 6.4 ± 2.4 | 9.2 ± 2.6 | 1.4 | CCOc1cc(C(O)P(=O)(O)CC[C@H](N)C(=O)O)cc([N+](=O)[O-])c1O (single isomer, unassigned) [LSP3-1143-II, hydrochloride] | – |
| 0.5 ± 0.07 | 31.5 ± 8.6 | – | N[C@@H](CCP(=O)(O)C(O)c1ccc(O)c([N+](=O)[O-])c1)C(=O)O (single isomer, unassigned) [LSP3-2074-I, hydrochloride] | EC50 (mGlu7; [2]): 62 ± 26 µM; mGlu8/4 EC50 ratio (mGlu4; hydrochloride): 63; EC50 (mGlu6; [2]): 3.9 ± 1.7 µM |
| 1 ± 0.4 | 1.25 ± 0.3 | – | NC(CCP(=O)(O)C(O)c1cccc([N+](=O)[O-])c1)C(=O)O (single isomer, unassigned) [LSP3-1098-I, hydrochloride] | – |
| 13 ± 3.9 | 33 ± 12 | – | COc1cc(C(N)P(=O)(O)CC[C@H](N)C(=O)O)cc([N+](=O)[O-])c1O (stereo partly drawn) [LSP4-1184, (2S)-amino-4-[[amino(4-hydroxy-5-methoxy-3-nitrophenyl)methyl](hydroxy)phosphoryl]butanoic acid] | – |
| 0.74 ± 0.09 | 23 ± 6 | – | COc1cc(C(O)P(=O)(O)CC[C@H](N)C(=O)O)cc([N+](=O)[O-])c1O (single isomer, unassigned) [LSP3-1101-I, hydrochloride] | EC50 (mGlu7; [2]): 63 ± 35 µM; mGlu8/4 EC50 ratio (mGlu4; hydrochloride): 31; EC50 (mGlu6; [2]): 1.11 ± 0.41 µM |
| 2 ± 0.4 | 2.5 ± 0.8 | – | COc1ccc(C(O)P(=O)(O)CC[C@H](N)C(=O)O)cc1[N+](=O)[O-] (single isomer, unassigned) [LSP2-6146-I, hydrochloride] | mGlu8/4 EC50 ratio (mGlu4; hydrochloride): 1.2 |
| 4.9 ± 1 | 36 ± 18 | 7.4 | N[C@@H](CCP(=O)(O)C(O)c1cccc(OCC(=O)O)c1)C(=O)O (single isomer, unassigned) [LSP3-3108-I] | – |
| 4.2 | 4.4 | – | COc1ccc(C(O)P(=O)(O)CC[C@H](N)C(=O)O)cc1[N+](=O)[O-] (stereo partly drawn) [LSP1-2101, (3S)-3-[(((3-amino-3-carboxy)propyl) (hydroxy)phosphinyl)-hydroxymethyl]-4-methoxy-3-nitrobenzene] | EC50 (mGlu4; [3]): 0.5 ± 0.09 µM; EC50 (mGlu8; [3]): 0.85 ± 0.07 µM |
| 13 ± 2.9 | 29.3 ± 7.2 | 2.3 | N[C@@H](CCP(=O)(O)C(O)c1cccc(OCC(=O)O)c1)C(=O)O (single isomer, unassigned) [LSP3-3108-II] | – |
| – | – | – | N[C@@H](CCP(=O)(O)C(O)c1cccc([N+](=O)[O-])c1)C(=O)O (mixture of isomers) [LSP1-2093, (3S)-3-[(((3-ammonium-3-carboxy)propyl)(hydroxy)phosphinyl)-hydroxymethyl]3-nitrobenzene] | EC50 (mGlu7; values marked IP): > 1000 µM; EC50 (mGlu6; values marked IP): 8.8 ± 0.7 µM; EC50 (mGlu8; [3]): 1.5 ± 0.5 µM |
| – | – | – | COc1cc(C(O)P(=O)(O)CC[C@H](N)C(=O)O)cc([N+](=O)[O-])c1O (mixture of isomers) [LSP1-2111, (3S)-3-[(((3-ammonium-3-carboxy)propyl)(hydroxy)phosphinyl)-hydroxymethyl]4-hydroxy-5-methoxy-3-nitrobenzene] | EC50 (mGlu7; values marked IP): 53 ± 20 µM; EC50 (mGlu7; [2]): 101 µM; EC50 (mGlu4; value printed without readout mark, read-out: mGlu4 EC50 μM (n) (converted)): 1.5 µM; EC50 (mGlu4; [3]): 2.2 ± 0.3 µM; EC50 (mGlu6; values marked IP): 1.7 ± 0.1 µM; EC50 (mGlu6; [2]): 3.18 µM; EC50 (mGlu8; value printed without readout mark, read-out: mGlu8 EC50 μM (n) (converted)): 113 µM; EC50 (mGlu8; [3]): 66 ± 12 µM |
| – | – | – | N[C@@H](CCP(=O)(O)C(O)c1ccc(O)c([N+](=O)[O-])c1)C(=O)O (stereo partly drawn) [LSP1-2109, (3S)-3-[(((3-amino-3-carboxy)propyl) (hydroxy)phosphinyl)-hydroxymethyl]-4-hydroxy-3-nitrobenzene] | EC50 (mGlu7; values marked IP): 69 ± 8 µM; EC50 (mGlu7; [2]): 125 µM; EC50 (mGlu6; values marked IP): 6 ± 0.9 µM; EC50 (mGlu6; [2]): 6.3 µM |
| – | – | 4.1 | NC(c1cccc([N+](=O)[O-])c1)P(=O)(O)CC[C@H](N)C(=O)O (stereo partly drawn) [LSP1-3131, (2S)-amino-4-[[amino(3-nitrophenyl)methyl](hydroxy)phosphinyl]butanoic acid] | EC50 (mGlu4; [3]): 0.54 ± 0.14 µM; EC50 (mGlu8; [3]): 2.2 ± 0.9 µM |
| 0.42 | 1 | – | N[C@@H](CCP(=O)(O)Cc1cccc([N+](=O)[O-])c1)C(=O)O [LSP3-1045, (3S)-3-[(((3-ammonium-3-carboxy)propyl) (hydroxy)phosphinyl)-methyl]3-nitrobenzene] | EC50 (mGlu4; [3]): 0.8 ± 0.2 µM; EC50 (mGlu8; [3]): 4.4 ± 2 µM |
| 8.5 ± 1.1 | 27 ± 20 | 3.1 | CCOc1cc(C(O)P(=O)(O)CC[C@H](N)C(=O)O)cc([N+](=O)[O-])c1O (mixture of isomers) [LSP3-1145, (3S)-3-[(((3-ammonium-3-carboxy)propyl)(hydroxy)phosphinyl)-hydroxymethyl]4-hydroxy-5-ethoxy-3-nitrobenzene] | – |
| 0.9 ± 0.4 | 1.3 ± 0.5 | – | NC(CCP(=O)(O)C(O)c1cccc([N+](=O)[O-])c1)C(=O)O (single isomer, unassigned) [LSP3-1098-II, hydrochloride] | – |
| 7.6 ± 2 | 71 ± 25 | 9.4 | N[C@@H](CCP(=O)(O)C(O)c1cccc(OCC(=O)O)c1)C(=O)O (stereo partly shown) [LSP3-3099] | – |
| – | – | 8.5 | Cl.N[C@@H](CCP(=O)(O)C(O)c1ccc(O)c([N+](=O)[O-])c1)C(=O)O (single isomer, unassigned) [LSP3-2074-II] | – |
| 4.5 ± 0.2 | 39.8 ± 6.5 | – | Cl.N[C@@H](CCP(=O)(O)C(O)c1ccc(O)c([N+](=O)[O-])c1)C(=O)O (single isomer, unassigned) [LSP3-2074-II, hydrochloride] | EC50 (mGlu7; [2]): 295 ± 178 µM; EC50 (mGlu6; [2]): 68.4 ± 14.5 µM |

| SMILES | EC50 (mGlu4; [1]) [µM] | EC50 (mGlu8; [1]) [µM] | mGlu8/4 EC50 ratio (mGlu4) | further results |
| --- | --- | --- | --- | --- |
| COc1cc(CP(=O)(O)CC[C@H](N)C(=O)O)cc([N+](=O)[O-])c1O.N [LSP3-2134, (3S)-3-[(((3-ammonium-3-carboxy)propyl)(hydroxy)phosphinyl)-methyl]4-hydroxy-5-methoxy-3-nitrobenzene] | 19.7 ± 10.5 | 16.6 ± 1.1 | 0.85 | – |
